The values below are quoted from earlier work in patent publication US20180280305A1 (Bayer HealthCare LLC, priority 2015, published 2018).

For this data set the following is noted: pain conditions, non-prescription (OTC) setting.

Turning to `COc1ccc2cc([C@H](C)C(=O)O)ccc2c1` [naproxen sodium], the lowest effective dose was 220 mg.
